“And” between values parts separate entries of the source, which are not always exact repeats. Equal entries are not always repeated. Structures can show the parent of a compound that is named as a salt. Where two headings read alike, the source gives them in different places.
Key:
[1] = cited from earlier work
[2] = Pharmacokinetics of DHE in dog serum after DPI inhalation vs intravenous bolus; format: in vivo, dogs; details: for Tmax: dog serum, inhalation 1 mg DPI
Procedure: In this study, dogs were administered the DHE particles via the DPI format (total dose 1 mg) and by intravenous bolus (total dose 0.5 mg) and DHE levels were measured in dog serum at defined intervals.

[3] = Powder stability with accelerated environmental aging, particle size by Aerosizer; format: physicochemical; details: MMAD
Procedure: (§1) DHE particle were produced by the SEDS super critical fluid process as described by Palakadoty et al. (US Application 20030109421). The DHE particulate powder produced was assayed by HPLC to determine purity and the mass mean aerodynamic diameter was determined using an Aerosizer instrument under standard operating conditions known in the art. […] The DHE particulate powder was subject to standard accelerated aging conditions of: (i) 3 months at 40 degrees Celsius and 75% relative humidity; and (ii) 25 degrees Celsius and 60% relative humidity. The DHE particles were placed in a tightly sealed dark glass container and placed in the appropriate incubation ovens for the 3 month period. At the end of the three month period, purity and particle size were again assessed as discussed above.

[4] = Powder stability with accelerated environmental aging, HPLC assay; format: physicochemical
Procedure: as §1

## CN1C[C@H](C(=O)N[C@]2(C)O[C@@]3(O)[C@@H]4CCCN4C(=O)[C@H](Cc4ccccc4)N3C2=O)C=C2c3cccc4[nH]cc(c34)C[C@H]21 [ergotamine tartrate]
[1]; pulmonary delivery
  bioavailability: up to 92%

## CN1C[C@H](C(=O)N[C@]2(C)O[C@@]3(O)[C@@H]4CCCN4C(=O)[C@H](Cc4ccccc4)N3C2=O)C[C@@H]2c3cccc4[nH]cc(c34)C[C@H]21 [DHE, dihydroergotamine]
[1]; in vivo
  bioavailability, administered dose reaching the systemic circulation: 2-10%
[2]; individual dogs
  Tmax: 10 min
[2]; dog, DPI 1 mg vs iv bolus 0.5 mg, FIG. 1
  blood levels of DHE compared to intravenous delivery: maintained at higher levels over an extended period of time
[2]; dog, DPI 1 mg, FIG. 1
  time to measurable levels of DHE in the blood after inhalation: ≤ 30 s
[2]; dog, in vivo, dog, inhalation 1.0 mg vs iv bolus 0.5 mg, n=3, read-out: F (bioavailability) Average (%)
  bioavailability: 52%
[2]; dog, in vivo, inhaled or intranasal, 1 mg, individual dogs, read-out: Tmax (converted)
  Tmax: 5 min
[2]; dog, in vivo, inhaled or intranasal, 1 mg, n=3, read-out: Tmax Average (converted)
  Tmax: 6.7 min
[2]; dog, inhalation 1.0 mg vs iv bolus 0.5 mg, individual dogs
  F (bioavailability) (%): 27% and 49% and 80%
[3]; 3 Months @ 25 C./60% RH
  Particle Size (microns by Aerosizer): 1.044 microns
[3]; 3 Months @ 40 C./75% RH
  Particle Size (microns by Aerosizer): 1.091 microns
[3]; Initial, on production
  Particle Size (microns by Aerosizer): 1.131 microns
[4]; 3 Months @ 25 C./60% RH, sealed dark glass container
  HPLC Assay (%): 101.0%
[4]; 3 Months @ 40 C./75% RH, sealed dark glass container
  HPLC Assay (%): 102.0%
[4]; Initial, on production
  HPLC Assay (%): 98.3%
